Results on five compounds are retold here after patent publication US10280101B2, “Water soluble chain transfer agents” (The Lubrizol Corporation, priority 2015, dated 2019).

The series can be described thus: Solubility/stability of CTA-acid salts in water. In kind it is physicochemical. The settings on record: CTA-acid dispersed in water at 1 wt. %, dissolved by adding the base/amine; solubility checked again after 48 hrs. at room temperature. The protocol:
These new CTA-“bases” were made using the same procedure shown above (“Formation of CTA-Acid Salt(s)”) starting with CTA-acid. The stability of several amines was tested by dispersing CTA-acid in water at 1 wt. % CTA-acid, and then dissolution by adding the amine.
Consider `NCCOCCOCCN`, for which the Soluble entry is “no”. As for `CC(C)CCCCCCCCCOCCCN`, the Soluble entry is “no”. With `NCCOCCO` the entry was “yes”; with `NCCNCCO`, “yes”; with `O=C1CCCN1CCO`, “no”.
